According to patent US7897626B2, “2-substituted thiazole-4-carboxamide derivatives, their preparation and use as pharmaceuticals” (Bayer Schering Pharma AG, priority 2007, dated 2011):

Tested on: TLR7
Assay: TLR-induced cytokine release (TNF-alpha) in human PBMC, TLR7 ligand stimulation
Format: cell-based
Details: human PBMC incubated 18 hours with test substance and TLR7 ligand; TNF-alpha in supernatant by ELISA; read-out: EC50 (TNF-α TLR7)
Description: TLR-Induced Cytokine Release in Human “Peripheral Blood Mononuclear Cells” (PBMC)
PBMCs isolated from human whole blood are stimulated using a TLR ligand.
The cytokine determination is carried out by means of ELISA kits; a proliferation/cell metabolism determination is carried out using Alamar Blue.
For the cell preparation, about 200 ml of blood are treated with an anticoagulant (e.g. citrate Monovettes). Per Leucosep tube, 15 ml of Histopaque (room temperature, RT) are poured in and forced downwards through the inserted frit by brief initial centrifugation (one minute at 1000×g, RT). 20 ml of blood are added to the tubes prepared in this way and centrifuged at 800×g for 15 minutes (RT). After centrifugation, the following layered arrangement results from the top to the bottom:
plasma-PBMC-Histopaque-filter disc-Histopaque-erythrocytes and granulocytes. The supernatant plasma is aspirated. The PBMC are transferred together with the underlying Histopaque to a new 50 ml tube, the contents of two Leucosep tubes always being added to one 50 ml tube. The 50 ml tubes are then filled to 50 ml with PBS. This cell suspension is centrifuged at 300×g (RT) for 10 minutes.
The liquid supernatant is tipped off and the cell pellet is resuspended with a little PBS and subsequently filled to 50 ml with PBS. This washing step is repeated twice. The resulting pellet is taken up in a defined volume of medium (with additives). For the testing of the substances, PBMC are incubated for 18 hours with titrated concentrations of the test substances, e.g. in the presence or absence of TLR7 or TLR9 ligands. On the next day, the supernatants are investigated for the content of TNF-alpha or other cytokines or chemokines by means of specific ELISA. The metabolic activity of the treated cells is determined with the aid of Alamar Blue.

| SMILES | EC50 |
| --- | --- |
| Cn1cc(NC(=O)c2csc(-c3cn[nH]c3)n2)c(C(N)=O)n1 [Example 1, 2-(1H-Pyrazol-4-yl)thiazole-4-(3-carbamoyl-1-methyl-1H-pyrazol-4-yl)-carboxamide] | 50 nM |
| Cc1cc(-c2nc(C(=O)Nc3ccccc3C(N)=O)cs2)cs1 [Example 2, N-[2-(Aminocarbonyl)phenyl]-2-(5-methyl-3-thienyl)-4-thiazole-carboxamide] | 3800 nM |
| Cc1ccc(C(N)=O)c(NC(=O)c2csc(-c3cn[nH]c3)n2)c1 [Example 3, N-[2-(Aminocarbonyl)-5-methylphenyl]-2-(1H-pyrazol-4-yl)thiazole-4-carboxamide] | 120 nM |
